Experimental data from US12492188B2, “1H-benzo[D]imidazole derivatives as TLR9 inhibitors for the treatment of fibrosis” (BRISTOL-MYERS SQUIBB COMPANY, priority 2020, dated 2025).
Where two headings read alike, the source gives them in different places.

Experiments:
Type in all cases: cell-based
human TLR9 = target: T1, human TLR9 (Homo sapiens, UniProt Q9NR96); test: TLR9 inhibition reporter assay (HEK-Blue cells, secreted embryonic alkaline phosphatase reporter)
T1 construct: host or cells: HEK-Blue cells (HEK293-derived reporter line)
T1 sequence (Q9NR96 26-1032): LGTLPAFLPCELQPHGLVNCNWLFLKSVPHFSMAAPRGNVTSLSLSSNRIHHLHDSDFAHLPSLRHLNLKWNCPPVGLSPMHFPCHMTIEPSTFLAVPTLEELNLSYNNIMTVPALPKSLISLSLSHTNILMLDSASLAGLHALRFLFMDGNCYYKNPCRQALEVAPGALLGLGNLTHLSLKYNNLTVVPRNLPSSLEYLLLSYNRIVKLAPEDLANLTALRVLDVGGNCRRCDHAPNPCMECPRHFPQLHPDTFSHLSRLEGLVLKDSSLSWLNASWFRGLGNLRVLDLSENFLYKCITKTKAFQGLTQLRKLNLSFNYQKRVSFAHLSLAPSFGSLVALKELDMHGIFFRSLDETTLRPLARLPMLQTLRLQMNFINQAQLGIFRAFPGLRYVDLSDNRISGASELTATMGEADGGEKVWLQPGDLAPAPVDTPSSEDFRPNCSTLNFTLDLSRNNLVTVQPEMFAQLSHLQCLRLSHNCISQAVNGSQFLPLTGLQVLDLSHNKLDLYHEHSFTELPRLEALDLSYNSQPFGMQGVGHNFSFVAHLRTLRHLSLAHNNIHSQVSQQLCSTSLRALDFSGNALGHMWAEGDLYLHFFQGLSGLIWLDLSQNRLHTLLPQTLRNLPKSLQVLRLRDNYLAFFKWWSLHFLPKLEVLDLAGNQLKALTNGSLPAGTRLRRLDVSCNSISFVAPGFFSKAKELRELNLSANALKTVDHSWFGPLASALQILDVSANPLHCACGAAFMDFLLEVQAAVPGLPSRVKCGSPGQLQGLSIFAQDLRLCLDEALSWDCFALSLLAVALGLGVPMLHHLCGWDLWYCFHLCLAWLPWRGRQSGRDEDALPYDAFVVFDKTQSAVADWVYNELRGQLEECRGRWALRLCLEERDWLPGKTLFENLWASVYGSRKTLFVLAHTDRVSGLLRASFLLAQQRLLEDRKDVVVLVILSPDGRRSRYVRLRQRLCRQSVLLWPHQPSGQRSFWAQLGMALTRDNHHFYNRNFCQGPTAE
Outline: (§1)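 Agonist-driven SEAP output was measured in HEK-Blue reporter cells carrying human TLR7 (gardiquimod 7.5 μM), TLR8 (R848 15.9 μM) or TLR9 (ODN2006 5 nM). Compounds at 0.05 nM–50 μM final were added 30 min before stimulation at room temperature. After 22 h at 37 °C, percent inhibition was taken against agonist/DMSO wells and a reference inhibitor.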

human TLR8 = target: T2, human TLR8 (Homo sapiens, UniProt Q9NR97); test: TLR8 inhibition reporter assay (HEK-Blue cells, secreted embryonic alkaline phosphatase reporter); details: HEK-Blue cells overexpressing human TLR8, stimulated with R848 15.9 μM; read-out: TLR 8 IC50
T2 construct: host or cells: HEK-Blue cells (HEK293-derived reporter line)
T2 sequence (Q9NR97 27-1041): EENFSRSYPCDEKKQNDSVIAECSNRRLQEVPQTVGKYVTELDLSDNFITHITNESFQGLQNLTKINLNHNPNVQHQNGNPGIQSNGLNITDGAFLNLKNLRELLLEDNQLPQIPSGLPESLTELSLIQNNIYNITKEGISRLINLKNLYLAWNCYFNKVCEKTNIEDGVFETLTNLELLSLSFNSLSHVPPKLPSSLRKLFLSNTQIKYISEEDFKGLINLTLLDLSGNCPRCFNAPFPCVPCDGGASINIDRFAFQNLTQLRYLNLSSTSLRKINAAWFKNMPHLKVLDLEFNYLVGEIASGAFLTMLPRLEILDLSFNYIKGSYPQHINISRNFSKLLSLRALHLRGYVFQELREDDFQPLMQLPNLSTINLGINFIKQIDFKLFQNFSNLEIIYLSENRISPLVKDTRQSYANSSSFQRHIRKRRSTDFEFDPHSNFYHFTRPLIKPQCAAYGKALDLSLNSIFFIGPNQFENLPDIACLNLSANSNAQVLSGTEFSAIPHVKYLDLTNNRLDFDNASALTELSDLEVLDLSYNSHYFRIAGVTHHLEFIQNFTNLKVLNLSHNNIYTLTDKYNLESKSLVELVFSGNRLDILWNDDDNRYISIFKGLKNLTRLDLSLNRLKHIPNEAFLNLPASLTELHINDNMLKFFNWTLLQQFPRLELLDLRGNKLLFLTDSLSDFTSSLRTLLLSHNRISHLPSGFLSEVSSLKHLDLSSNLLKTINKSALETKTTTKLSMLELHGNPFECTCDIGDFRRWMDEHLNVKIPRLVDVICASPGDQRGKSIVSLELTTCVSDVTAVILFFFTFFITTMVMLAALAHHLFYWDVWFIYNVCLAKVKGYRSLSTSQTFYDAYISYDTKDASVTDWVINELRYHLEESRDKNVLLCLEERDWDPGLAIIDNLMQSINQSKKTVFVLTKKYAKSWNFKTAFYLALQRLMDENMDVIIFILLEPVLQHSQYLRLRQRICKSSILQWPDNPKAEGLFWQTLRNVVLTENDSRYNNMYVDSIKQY
Outline: as §1

human TLR7 = target: T3, human TLR7 (Homo sapiens, UniProt Q9NYK1); test: TLR7 inhibition reporter assay (HEK-Blue cells, secreted embryonic alkaline phosphatase reporter); details: HEK-Blue cells overexpressing human TLR7, stimulated with gardiquimod 7.5 μM; read-out: TLR 7 IC50
T3 construct: host or cells: HEK-Blue cells (HEK293-derived reporter line)
T3 sequence (Q9NYK1 27-1049): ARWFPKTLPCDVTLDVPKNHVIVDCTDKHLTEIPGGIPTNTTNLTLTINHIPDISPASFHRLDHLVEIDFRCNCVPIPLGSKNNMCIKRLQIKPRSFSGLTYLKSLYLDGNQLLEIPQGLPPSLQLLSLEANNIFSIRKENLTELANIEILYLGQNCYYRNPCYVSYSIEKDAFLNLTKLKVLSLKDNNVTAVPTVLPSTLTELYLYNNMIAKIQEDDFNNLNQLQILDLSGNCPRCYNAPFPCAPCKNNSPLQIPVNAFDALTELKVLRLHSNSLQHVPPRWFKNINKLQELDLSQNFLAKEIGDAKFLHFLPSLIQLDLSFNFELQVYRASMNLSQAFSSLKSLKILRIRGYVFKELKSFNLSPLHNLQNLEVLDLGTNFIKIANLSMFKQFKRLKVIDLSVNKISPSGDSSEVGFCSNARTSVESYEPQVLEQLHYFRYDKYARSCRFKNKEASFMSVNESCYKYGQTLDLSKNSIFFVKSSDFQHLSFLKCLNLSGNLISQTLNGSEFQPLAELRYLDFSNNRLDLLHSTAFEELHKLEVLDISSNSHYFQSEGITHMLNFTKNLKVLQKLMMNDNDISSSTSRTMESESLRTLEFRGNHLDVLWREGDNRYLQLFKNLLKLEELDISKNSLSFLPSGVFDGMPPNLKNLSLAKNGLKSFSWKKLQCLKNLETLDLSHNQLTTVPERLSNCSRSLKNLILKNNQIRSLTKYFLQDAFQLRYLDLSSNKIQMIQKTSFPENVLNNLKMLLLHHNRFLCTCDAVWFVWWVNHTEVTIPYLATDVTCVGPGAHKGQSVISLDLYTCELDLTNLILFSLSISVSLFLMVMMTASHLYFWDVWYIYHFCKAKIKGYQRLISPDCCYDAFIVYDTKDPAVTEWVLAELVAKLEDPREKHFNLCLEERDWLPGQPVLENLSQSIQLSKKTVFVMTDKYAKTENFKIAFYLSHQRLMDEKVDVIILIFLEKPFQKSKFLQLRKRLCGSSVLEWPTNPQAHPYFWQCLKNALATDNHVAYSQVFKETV
Outline: as §1

[1] = HEK-Blue cells overexpressing human TLR9, stimulated with ODN2006 5 nM, read-out: TLR 9 IC50

SMILES | IC50 (human TLR9) [µM] | IC50 (human TLR9; [1]) [µM] | IC50 (human TLR8) [µM] | IC50 (human TLR7) [µM]
CS(=O)(=O)c1ccc(-c2nc3ccc(C4CCN(C5CCN(CC6CC6)CC5)CC4)c(F)c3[nH]2)cc1 [Example 179, 6-(1′-(cyclopropylmethyl)-[1,4′-bipiperidin]-4-yl)-7-fluoro-2-(4-(methylsulfonyl)phenyl)-1H-benzo[d]imidazole] | 0.18 | 0.184 | > 50 | > 50
CS(=O)(=O)c1ccc(-c2nc3ccc(C4CCN(C5CCN(C6CCC6)CC5)CC4)c(F)c3[nH]2)cc1 [Example 180, 6-(1′-cyclobutyl-[1,4′-bipiperidin]-4-yl)-7-fluoro-2-(4-(methylsulfonyl)phenyl)-1H-benzo[d]imidazole] | 0.025 |  | > 50 | > 50
CS(=O)(=O)c1ccc(-c2nc3ccc(C4CCN(C5CCN(C6COC6)CC5)CC4)c(F)c3[nH]2)cc1 [Example 181, 7-fluoro-2-(4-(methylsulfonyl)phenyl)-6-(1′-(oxetan-3-yl)-[1,4′-bipiperidin]-4-yl)-1H-benzo[d]imidazole] | 0.64 | 0.641 | > 50 | > 50
CS(=O)(=O)c1ccc(-c2nc3ccc(C4CCN(C5CCN(C6CCOCC6)CC5)CC4)c(F)c3[nH]2)cc1 [Example 182, 7-fluoro-2-(4-(methylsulfonyl)phenyl)-6-(1′-(tetrahydro-2H-pyran-4-yl)-[1,4′-bipiperidin]-4-yl)-1H-benzo[d]imidazole] | 0.32 | 0.316 | > 50 | > 50
CS(=O)(=O)c1ccc(-c2nc3ccc(C4CCN(C5CCN(CC6COC6)CC5)CC4)c(F)c3[nH]2)cc1 [Example 183, 7-fluoro-2-(4-(methylsulfonyl)phenyl)-6-(1′-(oxetan-3-ylmethyl)-[1,4′-bipiperidin]-4-yl)-1H-benzo[d]imidazole] | 0.11 | 0.11 | > 50 | > 50
CC(C)CN1CCC(N2CCC(c3ccc4c(nc(-c5ccc(S(C)(=O)=O)cc5)n4C)c3F)CC2)CC1 [Example 184, 4-fluoro-5-(1′-isobutyl-[1,4′-bipiperidin]-4-yl)-1-methyl-2-(4-(methylsulfonyl)phenyl)-1H-benzo[d]imidazole] | 0.85 | 0.85 | > 50 | > 50
COCCN1CCC(N2CCC(c3ccc4c(nc(-c5ccc(S(C)(=O)=O)cc5)n4C)c3F)CC2)CC1 [Example 188, 4-fluoro-5-(1′-(2-methoxyethyl)-[1,4′-bipiperidin]-4-yl)-1-methyl-2-(4-(methylsulfonyl)phenyl)-1H-benzo[d]imidazole] | 0.44 | 0.441 | > 50 | > 50

Results, then the compound that gave them:

IC50 (human TLR9) [µM] | IC50 (human TLR9; [1]) [µM] | IC50 (human TLR8) [µM] | IC50 (human TLR7) [µM] | SMILES
0.7 | 0.697 | > 50 | > 50 | Cn1c(-c2ccc(S(C)(=O)=O)cc2)nc2c(F)c(C3CCN(C4CCN(C5CC5)CC4)CC3)ccc21 [Example 185, 5-(1′-cyclopropyl-[1,4′-bipiperidin]-4-yl)-4-fluoro-1-methyl-2-(4-(methylsulfonyl)phenyl)-1H-benzo[d]imidazole]
7.3 | 7.3 | > 50 | > 50 | Cn1c(-c2ccc(S(C)(=O)=O)cc2)nc2c(F)c(C3CCN(C4CCN(C5COC5)CC4)CC3)ccc21 [Example 186, 4-fluoro-1-methyl-2-(4-(methylsulfonyl)phenyl)-5-(1′-(oxetan-3-yl)-[1,4′-bipiperidin]-4-yl)-1H-benzo[d]imidazole]
0.52 | 0.523 | > 50 | > 50 | Cn1c(-c2ccc(S(C)(=O)=O)cc2)nc2c(F)c(C3CCN(C4CCN(C5CCOCC5)CC4)CC3)ccc21 [Example 187, 4-fluoro-1-methyl-2-(4-(methylsulfonyl)phenyl)-5-(1′-(tetrahydro-2H-pyran-4-yl)-[1,4′-bipiperidin]-4-yl)-1H-benzo[d]imidazole]
0.49 | 0.49 | > 50 | > 50 | Cn1c(-c2ccc(S(C)(=O)=O)cc2)nc2c(F)c(C3CCN(C4CC5CCC(C4)N5C4COC4)CC3)ccc21 (centres unmarked) [Example 195, 4-fluoro-1-methyl-2-(4-(methylsulfonyl)phenyl)-5-(1-(8-(oxetan-3-yl)-8-azabicyclo[3.2.1]octan-3-yl)piperidin-4-yl)-1H-benzo[d]imidazole]
0.58 | 0.578 | > 50 | > 50 | Cn1c(-c2ccc(S(C)(=O)=O)cc2)nc2c(F)c(C3CCN(C4CC5CCC(C4)N5C4COC4)CC3)ccc21 (centres unmarked) [Example 196, 4-fluoro-1-methyl-2-(4-(methylsulfonyl)phenyl)-5-(1-(8-(oxetan-3-yl)-8-azabicyclo[3.2.1]octan-3-yl)piperidin-4-yl)-1H-benzo[d]imidazole]
